Data published in PubChem BioAssay (NCI).
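How tested: cells in 96-well plates exposed to compound for 48 hours at five concentrations. GI50 is the concentration that inhibits growth by half. TGI denotes the concentration required for complete inhibition of growth.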

Legend:
Assay in all cases: NCI anticancer screen, dose series, 48 h
[1] = tested on: SN12C renal
[2] = tested on: PC-3 prostate
[3] = tested on: MDA-MB-435
[4] = tested on: NCI-H460 lung
[5] = tested on: HL-60(TB) leukemia
[6] = tested on: SF-539 CNS
[7] = tested on: UO-31 renal
[8] = tested on: DU-145 prostate
[9] = tested on: HOP-62 NSCLC
[10] = tested on: MCF7 breast
[11] = tested on: LOX IMVI melanoma
[12] = tested on: OVCAR-3 ovarian
[13] = tested on: A549 NSCLC
[14] = tested on: SF-268 CNS
[15] = tested on: MALME-3M melanoma
[16] = tested on: OVCAR-5 ovarian
[17] = tested on: HCT-15 colon
[18] = tested on: SK-OV-3 ovarian
[19] = tested on: RXF 393 renal
[20] = tested on: SNB-19 CNS
[21] = tested on: UACC-62 melanoma
[22] = tested on: U251 CNS
[23] = tested on: SK-MEL-5 melanoma
[24] = tested on: COLO 205 colon
[25] = tested on: SK-MEL-28 melanoma
[26] = tested on: OVCAR-4 ovarian
[27] = tested on: KM12 colon
[28] = tested on: SF-295 CNS
[29] = tested on: M14 melanoma
[30] = tested on: HT29 colon
[31] = tested on: UACC-257 melanoma
[32] = tested on: SK-MEL-2 melanoma
[33] = tested on: BT-549 breast
[34] = tested on: SNB-75 CNS
[35] = tested on: K-562 leukemia
[36] = tested on: MOLT-4 leukemia
[37] = tested on: SW-620 colon
[38] = tested on: TK-10 renal
[39] = tested on: NCI/ADR-RES ovarian
[40] = tested on: ACHN renal
[41] = tested on: HOP-92 NSCLC
[42] = tested on: 786-0 renal
[43] = tested on: IGROV1 ovarian
[44] = tested on: NCI-H226 lung
[45] = tested on: OVCAR-8 ovarian
[46] = tested on: SR leukemia
[47] = tested on: HCT-116 colon
[48] = tested on: CAKI-1 renal
[49] = tested on: EKVX NSCLC
[50] = tested on: MDA-MB-231 breast
[51] = tested on: NCI-H23 lung
[52] = tested on: T-47D breast
[53] = tested on: CCRF-CEM leukemia
[54] = tested on: A498 renal
[55] = tested on: HCC-2998 colon
[56] = tested on: RPMI-8226 leukemia
[57] = tested on: NCI-H522 lung

CCCNC(=O)c1ccc(Cl)cc1Cl
GI50 [1]: > 100 µM
TGI [1]: > 100 µM
GI50 [2]: > 100 µM
TGI [2]: > 100 µM
GI50 [3]: > 100 µM
TGI [3]: > 100 µM
GI50 [4]: > 100 µM
TGI [4]: > 100 µM
GI50 [5]: > 100 µM
TGI [5]: > 100 µM
GI50 [6]: > 100 µM
TGI [6]: > 100 µM
GI50 [7]: > 100 µM
TGI [7]: > 100 µM
GI50 [8]: > 100 µM
TGI [8]: > 100 µM
GI50 [9]: > 100 µM
TGI [9]: > 100 µM
GI50 [10]: > 100 µM
TGI [10]: > 100 µM
GI50 [11]: > 100 µM
TGI [11]: > 100 µM
GI50 [12]: > 100 µM
TGI [12]: > 100 µM
GI50 [13]: > 100 µM
TGI [13]: > 100 µM
GI50 [14]: > 100 µM
TGI [14]: > 100 µM
GI50 [15]: > 100 µM
TGI [15]: > 100 µM
GI50 [16]: > 100 µM
TGI [16]: > 100 µM
GI50 [17]: > 100 µM
TGI [17]: > 100 µM
GI50 [18]: > 100 µM
TGI [18]: > 100 µM
GI50 [19]: > 100 µM
TGI [19]: > 100 µM
GI50 [20]: > 100 µM
TGI [20]: > 100 µM
GI50 [21]: > 100 µM
TGI [21]: > 100 µM
GI50 [22]: > 100 µM
TGI [22]: > 100 µM
GI50 [23]: > 100 µM
TGI [23]: > 100 µM
GI50 [24]: > 100 µM
TGI [24]: > 100 µM
GI50 [25]: > 100 µM
TGI [25]: > 100 µM
GI50 [26]: > 100 µM
TGI [26]: > 100 µM
GI50 [27]: > 100 µM
TGI [27]: > 100 µM
GI50 [28]: > 100 µM
TGI [28]: > 100 µM
GI50 [29]: > 100 µM
TGI [29]: > 100 µM
GI50 [30]: > 100 µM
TGI [30]: > 100 µM
GI50 [31]: > 100 µM
TGI [31]: > 100 µM
GI50 [32]: > 100 µM
TGI [32]: > 100 µM
GI50 [33]: > 100 µM
TGI [33]: > 100 µM
GI50 [34]: > 100 µM
TGI [34]: > 100 µM
GI50 [35]: > 100 µM
TGI [35]: > 100 µM
GI50 [36]: > 100 µM
TGI [36]: > 100 µM
GI50 [37]: > 100 µM
TGI [37]: > 100 µM
GI50 [38]: > 100 µM
TGI [38]: > 100 µM
GI50 [39]: > 100 µM
TGI [39]: > 100 µM
GI50 [40]: > 100 µM
TGI [40]: > 100 µM
GI50 [41]: > 100 µM
TGI [41]: > 100 µM
GI50 [42]: > 100 µM
TGI [42]: > 100 µM
GI50 [43]: > 100 µM
TGI [43]: > 100 µM
GI50 [44]: > 100 µM
TGI [44]: > 100 µM
GI50 [45]: > 100 µM
TGI [45]: > 100 µM
GI50 [46]: > 100 µM
TGI [46]: > 100 µM
GI50 [47]: > 100 µM
TGI [47]: > 100 µM
GI50 [48]: > 100 µM
TGI [48]: > 100 µM
GI50 [49]: > 100 µM
TGI [49]: > 100 µM
GI50 [50]: > 100 µM
TGI [50]: > 100 µM
GI50 [51]: > 100 µM
TGI [51]: > 100 µM
GI50 [52]: > 100 µM
TGI [52]: > 100 µM

COC(=O)c1c[nH]c2c1-c1cc(C(=O)OCc3ccccc3)n(S(=O)(=O)c3ccc(C)cc3)c1C(=O)C2=O
TGI [1]: 0.481 µM
TGI [2]: 1.19 µM
TGI [3]: 0.135 µM
TGI [4]: 2.69 µM
TGI [5]: > 100 µM
TGI [6]: 0.471 µM
TGI [7]: 1.38 µM
TGI [8]: 0.287 µM
TGI [53]: > 33.3 µM
TGI [9]: 1.06 µM
TGI [10]: 0.379 µM
TGI [11]: 0.375 µM
TGI [12]: 0.155 µM
TGI [13]: 1.97 µM
TGI [14]: 2.27 µM
TGI [15]: 0.222 µM
TGI [54]: 3.16 µM
TGI [16]: 2.9 µM
TGI [17]: 0.438 µM
TGI [18]: 3.1 µM
TGI [55]: 1.9 µM
TGI [19]: 1.14 µM
TGI [20]: 0.505 µM
TGI [21]: 0.363 µM
TGI [22]: 1.13 µM
TGI [56]: 2.83 µM
TGI [23]: 0.262 µM
TGI [24]: 2.08 µM
TGI [25]: 0.244 µM
TGI [26]: 1.08 µM
TGI [27]: 0.89 µM
TGI [28]: 0.312 µM
TGI [29]: 0.289 µM
TGI [30]: 0.418 µM
TGI [31]: 0.311 µM
TGI [32]: 0.521 µM
TGI [33]: 0.342 µM
TGI [34]: 0.389 µM
TGI [35]: > 100 µM
TGI [37]: 0.576 µM
TGI [38]: 4.1 µM
TGI [39]: 6.01 µM
TGI [40]: 0.761 µM
TGI [41]: 1.29 µM
TGI [42]: 1.02 µM
TGI [57]: 0.607 µM
TGI [43]: 0.955 µM
TGI [44]: 0.889 µM
TGI [45]: 0.927 µM
TGI [46]: 3.51 µM
TGI [47]: 0.607 µM
TGI [48]: 2.65 µM
TGI [49]: 0.291 µM
TGI [50]: 0.401 µM
TGI [51]: 0.32 µM
TGI [52]: 2.47 µM
